Test results published in US20120309683A1, “USE OF […] ADENYLATE CYCLASE-ACTIVATING POLYPEPTIDE (PACAP) AND PACAP ANALOGS AS ADJUNCTIVE TREATMENTS WITH INHIBITORS OF CALCINEURIN OR INHIBITORS OF THE […] TARGET OF RAPAMYCIN (mTOR) COMPLEXES” (The Administrators of the Tulane Educational Fund, priority 2010, published 2012).
Read-outs that look alike come from different tables or passages of the source.

Tests used:
IL-2 synthesis = settings: cited from earlier work
[1] = tested on: HK-2 human kidney cells (human renal proximal tubule epithelial cells); assay: Tacrolimus-induced loss of viability of HK-2 cells, lactate dehydrogenase in intact cells; format: cell-based
Description: The HK-2 human kidney cells were cultured in Keratinocyte-Serum Free Medium supplemented with recombinant epidermal growth factor and bovine pituitary extract. […] Each value represents the mean plus/minus the standard error of five determinations. **p<0.01 and *p<0.05 compared to the cells treated only with tacrolimus.

[2] = tested on: Jurkat human T-lymphocyte cells; assay: Proliferation of Jurkat cells, bromodeoxyuridine incorporation; format: cell-based
Description: The Jurkat human T-lymphocyte cells were cultured in RPMI 1640 medium supplemented with 10% heat-inactivated fetal calf serum. The Jurkat cells were stimulated with mitogens (1 mg/ml of PHA and 50 ng/ml of PMA).
(§1) However, when Jurkat cells were stimulated with PHA and PMA, large quantities of interleukin-2 could be detected in the medium (FIG. 9). […] At the highest dose (10^−5 M), PACAP38 inhibited the proliferation of the Jurkat cells by more than 50%.

[3] = tested on: human renal proximal tubule epithelial cells; assay: Methotrexate-induced apoptotic cell death of human renal proximal tubule epithelial cells; format: cell-based; settings: methotrexate for 24 hours
Description: (§2) The inhibitory effects of PACAP38 on apoptotic cell death were assessed by the quantitative determination of cytoplasmic histone-associated DNA-fragmentation (mono- and oligonucleosomes) after exposure to methotrexate for 24 hours. Each value represents the mean plus/minus the standard deviation of six determinations. **p<0.01 and *p<0.05 compared to the cells treated only with methotrexate.
(§3) An ideal cytoprotective adjunctive agent should have the same effect as the main therapeutic agent against the intended therapeutic target, but protect the patient against the deleterious “off-target” effects of the main therapeutic. […] Furthermore, these experiments indicate that PACAP-like compounds would be beneficial as monotherapeutics for the treatment of leukemias. These experiments also indicate that combination therapy with PACAP-like compounds plus azathioprine or 6-mercaptopurine would result in an increased therapeutic index compared to azathioprine or 6-mercaptopurine, respectively, alone.

HK-2 human kidney cells = assay: Morphology of HK-2 cells, phase-contrast microscopy; format: cell-based; settings: 50 μM cyclosporine A and 10^−8 M PACAP38 for 48 hours
Description: The cells were visualized with an inverted phase-contrast microscope. The HK-2 human kidney cells were grown to 80% confluence. (A) The morphology of the HK-2 cells grown in normal medium.

[4] = tested on: HK-2 human kidney cells (human renal proximal tubule epithelial cells); assay: Cyclosporine A-induced injury (cytotoxicity) of HK-2 cells, lactate dehydrogenase in culture medium; format: cell-based; settings: PACAP38 10^−8 M added to medium of cyclosporine A-treated HK-2 cells
Description: (§4) The effects of PACAP38 at a concentration of 10^−8 M on cell injury were assessed by determining the activity of the cytoplasmic enzyme lactate dehydrogenase in the culture medium. Each value represents the mean plus/minus the standard error of four determinations. **p<0.01 compared to the cells treated only with cyclosporine A.

[5] = tested on: light-chain immunoglobulin-secreting human multiple myeloma cells; assay: Proliferation of multiple myeloma cells with sirolimus, bromodeoxyuridine incorporation; format: cell-based
Description: The light-chain immunoglobulin-secreting human multiple myeloma cells were cultured in RPMI 1640 medium supplemented with 10% non-inactivated fetal bovine serum and 0.05 mM 2-mercaptoethanol. The effects of PACAP38, PACAP27 and PACAP analogs on myeloma cell proliferation were assessed by determining incorporation of bromodeoxyuridine into DNA during cell division. The number of myeloma cells approximately doubled during the 24-hour incubation period in the absence of treatment with PACAP-like peptides. Four different concentrations, ranging from 10^−9 M to 10^−6 M, were tested for PACAP38, PACAP27 and each of the PACAP analogs. Each value represents the mean plus/minus the standard error of four determinations. **p<0.01 and *p<0.05 compared to the cells treated only with sirolimus.
The effects of PACAP38, PACAP27 and PACAP analogs on human cell proliferation were assessed by determining incorporation of bromodeoxyuridine into DNA during cell division. […] At the highest dose (10^−6 M), PACAP38 inhibited the proliferation by more than 50%.

rat [6] = settings: 15-minute occlusion, continuous infusion; cited from earlier work
[7] = tested on: human renal proximal tubule epithelial cells (HK-2); assay: TGF-β1 secretion by HK-2 cells treated with cyclosporine A; format: cell-based; settings: PACAP38 10^−8 M, cyclosporine A-treated HK-2 cells
Description: as §4, with “the production of TGF-β1” for “cell injury”, “concentration” for “activity”, “TGF-β1” for “the cytoplasmic enzyme lactate dehydrogenase”, “six” for “four”

rat [8] = settings: 48 hours, cited from earlier work
[9] = tested on: Jurkat human T-lymphocyte cells; assay: Mitogen-stimulated secretion of interleukin-2 from Jurkat cells; format: cell-based; settings: PHA and PMA stimulated Jurkat cells
Description: The Jurkat human T-lymphocyte cells were cultured in RPMI 1640 medium supplemented with 10% heat-inactivated fetal calf serum. The Jurkat cells were stimulated with the mitogens phytohemagglutinin (PHA, 1 mg/ml) and phorbol 12-myristate 13-acetate (PMA, 50 ng/ml). […] Each value represents the mean plus/minus the standard error of eight determinations. **p<0.01 and *p<0.05 compared to the cells treated only with the mitogens.
as §1

[10] = tested on: HK-2 human kidney cells (human renal proximal tubule epithelial cells); assay: Sirolimus-induced apoptotic cell death of HK-2 cells, histone-associated DNA fragmentation; format: cell-based
Description: The HK-2 human kidney cells were cultured in Keratinocyte-Serum Free Medium supplemented with recombinant epidermal growth factor and bovine pituitary extract. The dose-dependent inhibitory effect of PACAP38 on apoptotic cell death was assessed by the quantitative determination of cytoplasmic histone-associated DNA-fragmentation (mono- and oligonucleosomes) after exposure to 100 ng/ml of sirolimus for 24 hours. Each value represents the mean plus/minus the standard error of eight determinations. **p<0.01 and *p<0.05 compared to the cells treated only with sirolimus.

[11] = tested on: human T-lymphocyte cells (Jurkat); assay: Methotrexate-induced apoptotic cell death of Jurkat cells; format: cell-based; settings: methotrexate and PACAP38 for 24 hours, same dose range
Description: as §2, with “Jurkat cells were cultured in RPMI 1640 medium supplemented with 10% heat-inactivated fetal calf serum. The cells were treated with PACAP38 for 24 hours. The […]” for “inhibitory”, “error” for “deviation”, “eight” for “six”
as §3

[12] = tested on: Jurkat human T-lymphocyte cells; assay: Inhibition by cyclosporine A of IL-2 secretion from Jurkat cells, enhancement by peptides; format: cell-based; settings: peptide added on top of cyclosporine, 24 hours
Description: The Jurkat human T-lymphocyte cells were cultured in RPMI 1640 medium supplemented with 10% heat-inactivated fetal calf serum. The Jurkat cells were stimulated with mitogens (1 mg/ml of PHA and 50 ng/ml of PMA). […] Each value represents the mean plus/minus the standard error of eight determinations. **p<0.01 and *p<0.05 compared to the cells treated only with the mitogens.
However, when Jurkat cells were stimulated with PHA and PMA, large quantities of interleukin-2 could be detected in the medium (FIG. 11).

Male C57BL/6 mice = assay: Cyclosporine A-induced nephrotoxicity in mice (serum creatinine, kidney TGF-β1); format: in vivo; settings: cyclosporine A 5 mg/kg i.p., 20 μg PACAP38 i.p. 1 h before, 24 and 48 h
Description: The control group of mice was injected intraperitoneally with the same volume of saline as for the injections of cyclosporine A and PACAP38 on the same schedule. The mice were euthanized 24 hours after the final injection of PACAP38.
Male C57BL/6 mice were given a single intraperitoneal injection of 5 mg/kg of cyclosporine A. Twenty micrograms of PACAP38 were given intraperitoneally 1 hour before the injection of cyclosporine A and additional doses were given at 24 and 48 hours after the initial dose. The control group of mice was injected intraperitoneally with the same volume of saline as for the injections of cyclosporine A and PACAP38 on the same schedule. The mice were euthanized 24 hours after the final injection of PACAP38.

Compound: C=CC[C@@H]1/C=C(\C)C[C@H](C)C[C@H](OC)[C@H]2O[C@@](O)(C(=O)C(=O)N3CCCC[C@H]3C(=O)O[C@H](/C(C)=C/[C@@H]3CC[C@@H](O)[C@H](OC)C3)[C@H](C)[C@@H](O)CC1=O)[C@H](C)C[C@@H]2OC [tacrolimus, reference compound]
- potency as an inhibitor of IL-2 synthesis relative to cyclosporine A (IL-2 synthesis): about 100 -fold
- number of viable cells ([1]; tacrolimus alone, HK-2 cells): large significant decrease in the number of viable cells

Compound: PACAP38
- inhibition of proliferation of Jurkat cells ([2]; highest dose 10^−5 M): more than 50%
- rate of proliferation of the human T-lymphocyte cell line ([2]; mitogen-stimulated Jurkat cells, 24 hours): significant dose-dependent inhibition
- toxic side-effects of methotrexate on human renal proximal tubule epithelial cells (apoptotic cell death) [3]: potently inhibits the toxic side-effects of methotrexate
- restoration of the cell monolayer, confluence (HK-2 human kidney cells): 70-80%
- number of grossly elongated and filopodia-formatted cells (HK-2 human kidney cells; versus cyclosporine A alone): marked reduction
- potency as a renoprotectant relative to VIP ([1]; tacrolimus-treated HK-2 cells): significantly more potent than VIP
- loss of viable human renal proximal tubule epithelial cells caused by tacrolimus ([1]; various concentrations of peptide added to medium): significant dose-dependent reduction
- cyclosporine A-induced cell death [4]: almost completely prevented
- inhibition of proliferation ([5]; highest dose 10^−6 M): more than 50%
- rate of proliferation of the human B-lymphocyte cell line ([5]; multiple myeloma cells with sirolimus, 10^−9 M to 10^−6 M peptide, 24-hour incubation): significant dose-dependent inhibition
- reduction in the number of CA1 pyramidal cells at day 7 post-occlusion (rat [6]): significantly reversed
- cyclosporine A-induced secretion of TGF-β1 into the medium [7]: almost completely prevented the secretion of TGF-β1
- reduction of the infarct volume (rat [8]; continuous i.v. infusion beginning 4 hours after start of 2 h MCAO): approximately 51%
- reduction of the infarct volume (rat [8]; continuous i.v. infusion beginning 8 hours after start of 2 h MCAO): ~22%
- reduction of the infarct volume (rat [8]; continuous i.v. infusion beginning 12 hours after start of 2 h MCAO): ~12%
- relative potency of PACAP38 and VIP on interleukin-2 secretion [9]: appeared to be equipotent
- mitogen-induced secretion of interleukin-2 into the medium ([9]; 24 hours): large significant inhibition
- sirolimus-induced apoptotic cell death ([10]; highest dose 10^−6 M): almost completely prevented
- sirolimus-induced apoptotic cell death ([10]; varying concentrations of PACAP38): significant dose-dependent reduction
- killing of human T lymphocyte cells by methotrexate (apoptotic cell death) [11]: potently stimulates the killing
- cyclosporine-induced inhibition of interleukin-2 secretion [12]: small dose-dependent enhancement
- increase in TGF-β1 in the kidney (Male C57BL/6 mice): significantly reduced the increases
- increase in serum creatinine (Male C57BL/6 mice): significantly reduced the increases
